In test [1] the target is Macrophage colony-stimulating factor 1 receptor (Homo sapiens, UniProt P07333). The test can be described thus: Displacement of kinase tracer 236 from recombinant human His-tagged CSF1R cytoplasmic domain (538 to 910 residues) expressed in baculovirus-infected insect cells measured after 5 hrs by TR-FRET based LanthaScreen assay. On the technique in general: Time-resolved FRET reads energy transfer from a long-lived donor to a nearby acceptor.

In test [2] the target is Vascular endothelial growth factor receptor 2 (Homo sapiens, UniProt P35968). Kind of test: Displacement of kinase tracer 236 from recombinant human His-tagged KDR cytoplasmic domain (789 to 1356 residues) expressed in baculovirus-infected insect cells measured after 5 hrs by TR-FRET based LanthaScreen assay.

We go through 59 molecules from ChEMBL document CHEMBL4418299, “Compounds useful as csf1 modulators” (2016).

Sequence of Vascular endothelial growth factor receptor 2 (P35968 whole entry, the tested form may be a part): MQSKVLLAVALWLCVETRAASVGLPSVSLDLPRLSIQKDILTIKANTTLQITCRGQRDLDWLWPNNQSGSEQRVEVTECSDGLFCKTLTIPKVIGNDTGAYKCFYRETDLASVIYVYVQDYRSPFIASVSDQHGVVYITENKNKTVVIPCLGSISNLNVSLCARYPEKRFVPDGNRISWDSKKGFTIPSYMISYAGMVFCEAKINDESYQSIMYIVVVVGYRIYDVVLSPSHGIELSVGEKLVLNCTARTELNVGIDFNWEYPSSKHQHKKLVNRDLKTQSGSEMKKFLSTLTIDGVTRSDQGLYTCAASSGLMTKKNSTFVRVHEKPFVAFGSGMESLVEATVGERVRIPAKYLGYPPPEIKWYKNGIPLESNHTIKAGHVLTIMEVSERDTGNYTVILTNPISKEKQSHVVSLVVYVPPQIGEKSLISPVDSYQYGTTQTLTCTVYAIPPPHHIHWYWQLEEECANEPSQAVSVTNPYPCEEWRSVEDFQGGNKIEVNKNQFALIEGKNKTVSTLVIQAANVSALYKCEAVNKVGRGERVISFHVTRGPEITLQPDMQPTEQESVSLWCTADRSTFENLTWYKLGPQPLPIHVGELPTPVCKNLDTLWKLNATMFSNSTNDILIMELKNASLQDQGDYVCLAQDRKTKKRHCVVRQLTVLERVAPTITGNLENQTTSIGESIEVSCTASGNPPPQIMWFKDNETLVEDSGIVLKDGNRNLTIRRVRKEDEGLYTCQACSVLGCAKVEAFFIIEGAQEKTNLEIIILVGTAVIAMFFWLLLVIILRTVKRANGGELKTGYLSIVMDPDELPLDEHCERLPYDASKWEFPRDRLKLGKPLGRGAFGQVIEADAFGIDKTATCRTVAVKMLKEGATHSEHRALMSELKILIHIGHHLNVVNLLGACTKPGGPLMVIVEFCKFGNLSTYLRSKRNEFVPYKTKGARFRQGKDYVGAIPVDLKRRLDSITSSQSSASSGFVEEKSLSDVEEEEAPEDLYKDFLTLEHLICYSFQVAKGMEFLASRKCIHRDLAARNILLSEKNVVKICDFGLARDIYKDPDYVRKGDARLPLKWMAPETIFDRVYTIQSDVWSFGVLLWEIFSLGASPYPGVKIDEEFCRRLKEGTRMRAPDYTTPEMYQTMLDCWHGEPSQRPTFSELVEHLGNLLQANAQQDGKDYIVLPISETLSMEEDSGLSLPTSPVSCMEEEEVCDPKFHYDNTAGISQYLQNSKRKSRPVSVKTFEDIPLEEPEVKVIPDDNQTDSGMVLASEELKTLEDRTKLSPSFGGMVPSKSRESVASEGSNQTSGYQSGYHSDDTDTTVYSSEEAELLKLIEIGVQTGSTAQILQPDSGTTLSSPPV
Sequence of Macrophage colony-stimulating factor 1 receptor (P07333 whole entry, the tested form may be a part): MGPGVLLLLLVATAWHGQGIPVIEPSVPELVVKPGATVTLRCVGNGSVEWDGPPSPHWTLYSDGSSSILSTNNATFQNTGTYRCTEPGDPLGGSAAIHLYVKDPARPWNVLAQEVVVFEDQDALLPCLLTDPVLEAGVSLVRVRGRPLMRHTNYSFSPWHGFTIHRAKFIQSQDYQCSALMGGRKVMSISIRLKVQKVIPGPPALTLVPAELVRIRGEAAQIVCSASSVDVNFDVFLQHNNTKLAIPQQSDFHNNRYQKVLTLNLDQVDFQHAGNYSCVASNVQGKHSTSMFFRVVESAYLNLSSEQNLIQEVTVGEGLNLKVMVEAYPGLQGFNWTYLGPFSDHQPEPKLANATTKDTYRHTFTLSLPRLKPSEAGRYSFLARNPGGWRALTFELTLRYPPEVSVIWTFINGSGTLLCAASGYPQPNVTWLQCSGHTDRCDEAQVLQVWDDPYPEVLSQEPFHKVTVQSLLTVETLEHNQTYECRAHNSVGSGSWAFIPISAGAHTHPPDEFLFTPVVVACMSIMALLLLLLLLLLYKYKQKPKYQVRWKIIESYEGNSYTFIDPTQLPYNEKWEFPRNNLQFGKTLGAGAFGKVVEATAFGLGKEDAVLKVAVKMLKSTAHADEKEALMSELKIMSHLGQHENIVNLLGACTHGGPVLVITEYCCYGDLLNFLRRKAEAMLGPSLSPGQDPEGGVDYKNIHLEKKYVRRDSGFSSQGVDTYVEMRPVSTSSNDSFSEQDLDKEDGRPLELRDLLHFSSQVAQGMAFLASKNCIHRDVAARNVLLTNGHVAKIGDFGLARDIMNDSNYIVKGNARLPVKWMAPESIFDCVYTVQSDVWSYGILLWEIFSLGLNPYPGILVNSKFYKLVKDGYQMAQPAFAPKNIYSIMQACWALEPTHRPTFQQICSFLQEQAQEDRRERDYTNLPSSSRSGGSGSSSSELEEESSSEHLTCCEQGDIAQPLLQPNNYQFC

On to `Cc1ccc(F)c(NC(=O)Cc2ccc(-n3c4c(c5ncnc(N)c53)COC4)cc2)c1`, for which the IC50 in test [1] is 10 to 200 nM; in test [2], more than 200 nM.
The corresponding values for `COc1ccc(NC(=O)Cc2ccc(-n3c4c(c5ncnc(N)c53)CCC4)cc2)c(F)c1` are 10 to 200 nM and more than 200 nM.
The corresponding values for `CC(C)(C)c1cc(NC(=O)Cc2ccc(-n3c4c(c5ncnc(N)c53)CCC4)cc2)n(-c2ccccc2)n1` are less than 10 nM and less than 10 nM.
The corresponding values for `Nc1ncnc2c3c(n(-c4ccc(CC(=O)Nc5ccc(Cl)c(C(F)(F)F)c5)cc4)c12)COC3` are less than 10 nM and more than 200 nM.
Consider `CC(C)c1cn(C)c2ccc(CC(=O)Nc3ccc(-n4c5c(c6ncnc(N)c64)CCC5)cc3)cc12`, for which the IC50 in test [1] was 10 to 200 nM; in test [2], more than 200 nM.
On to `COc1ccc(NC(=O)Cc2ccc(-n3c4c(c5ncnc(N)c53)CCC4)cc2)cn1`, for which the IC50 is 10 to 200 nM in test [1] and more than 200 nM in test [2].
For `COc1cc(CC(=O)Nc2ccc(-n3c4c(c5ncnc(N)c53)CCC4)cc2)ccc1C` the same measures were less than 10 nM and more than 200 nM.
Turning to `COc1cc(-n2c3c(c4ncnc(N)c42)COC3)ccc1NC(=O)Cc1ccc(OC(F)(F)F)cc1`, the IC50 in test [1] is 6 nM; in test [2], more than 200 nM.
Take `Nc1ncnc2c3c(n(-c4ccc(CC(=O)Nc5ccc(Cl)c(C(F)(F)F)c5)cc4)c12)CCC3`: the figures for the IC50 in test [1] and in test [2] were 9 nM and more than 200 nM, respectively.
As to `COc1cc(-n2c3c(c4ncnc(N)c42)CCC3)ccc1NC(=O)Cc1ccc2c(c1)CCN2CC(F)(F)F`, the half-inhibitory concentration (IC50) in test [1] was less than 10 nM; in test [2] it was more than 200 nM.
The corresponding values for `Nc1ncnc2c3c(n(-c4ccc(NC(=O)Cc5ccc(Cl)nn5)cc4)c12)CCC3` are 10 to 200 nM and more than 200 nM.
Take `Nc1ncnc2c3c(n(-c4ccc(NC(=O)Cc5ccc6c(c5)CCN6CC(F)(F)F)cc4)c12)CCC3`: the IC50 in test [1] is less than 10 nM; in test [2], more than 200 nM.
On to `Nc1ncnc2c3c(n(-c4ccc(CC(=O)Nc5ccc6c(c5)CCC6)cc4)c12)CCC3`, for which the concentration for half-maximal inhibition (IC50) was less than 10 nM in test [1] and 10 to 200 nM in test [2].
The corresponding values for `Cc1cc(CC(=O)Nc2ccc(-n3c4c(c5ncnc(N)c53)CCC4)cc2)on1` are 10 to 200 nM and more than 200 nM.
For `Nc1ncnc2c3c(n(-c4ccc(CC(=O)Nc5nc(C(F)(F)F)cs5)cc4)c12)CCC3` the same measures were 10 to 200 nM and more than 200 nM.
The corresponding values for `CC(C(=O)Nc1ccc(-n2c3c(c4ncnc(N)c42)CCC3)cc1)c1ccccc1` (stereo not drawn) are 10 to 200 nM and more than 200 nM.
For `Nc1ncnc2c3c(n(-c4ccc(NC(=O)Cc5ccc(OC(F)(F)F)cc5)cc4)c12)COC3`, the half-maximal inhibitory concentration (IC50) is less than 10 nM in test [1] and more than 200 nM in test [2].
The corresponding values for `COc1cc(-n2c3c(c4ncnc(N)c42)CCC3)ccc1CC(=O)Nc1ccnc(C(F)(F)F)c1` are less than 10 nM and more than 200 nM.
The corresponding values for `Nc1ncnc2c3c(n(-c4ccc(CC(=O)Nc5ccccc5)cc4)c12)CCC3` are 10 to 200 nM and more than 200 nM.
The corresponding values for `COc1cc(-n2c3c(c4ncnc(N)c42)CCC3)ccc1CC(=O)Nc1ccc(Cl)c(Cl)c1` are less than 10 nM and more than 200 nM.
In the case of `Cc1ccc(CC(=O)Nc2ccc(-n3c4c(c5ncnc(N)c53)COC4)cc2)c(F)c1`, the IC50 in test [1] is 10 to 200 nM; in test [2], more than 200 nM.
Regarding `COc1ccc(CC(=O)Nc2ccc(-n3c4c(c5ncnc(N)c53)CCC4)cc2)cc1C`, the IC50 was less than 10 nM in test [1] and more than 200 nM in test [2].
The corresponding values for `COc1ccc(CC(=O)Nc2ccc(-n3c4c(c5ncnc(N)c53)COC4)cc2)cc1C(F)(F)F` are less than 10 nM and more than 200 nM.
For `Cc1ccc(CC(=O)Nc2ccc(-n3c4c(c5ncnc(N)c53)CCC4)cc2)c(F)c1` the same measures were less than 10 nM and 10 to 200 nM.
The corresponding values for `Nc1ncnc2c3c(n(-c4ccc(CC(=O)Nc5ccc(C(F)(F)F)nc5)cc4)c12)CCC3` are 10 to 200 nM and more than 200 nM.
Turning to `Cc1ccc(CC(=O)Nc2ccc(-n3c4c(c5ncnc(N)c53)CCC4)cc2)cc1F`, the IC50 was less than 10 nM in test [1] and more than 200 nM in test [2].
Regarding `Nc1ncnc2c3c(n(-c4ccc(NC(=O)Cc5nc6ccccc6s5)cc4)c12)CCC3`, the 50% inhibitory concentration (IC50) is 10 to 200 nM in test [1] and more than 200 nM in test [2].
Regarding `Nc1ncnc2c3c(n(-c4ccc(CC(=O)Nc5ccc(Cl)c(Cl)c5)cc4)c12)CCC3`, the IC50 in test [1] was less than 10 nM; in test [2] it was more than 200 nM.
For `Nc1ncnc2c3c(n(-c4ccc(CC(=O)Nc5ccc(C(F)(F)F)nn5)cc4)c12)CCC3` the same measures were 10 to 200 nM and more than 200 nM.
For the molecule `COc1ccc(CC(=O)Nc2ccc(-n3c4c(c5ncnc(N)c53)CCC4)cc2)cc1C(F)(F)F`, the IC50 was less than 10 nM in test [1] and more than 200 nM in test [2].
On to `Nc1ncnc2c3c(n(-c4ccc(NC(=O)Cc5ccc(Cl)c(C(F)(F)F)c5)cc4)c12)COC3`, for which the 50% inhibitory concentration (IC50) in test [1] was less than 10 nM; in test [2] it was more than 200 nM.
On to `COc1ccc(CC(=O)Nc2ccc(-n3c4c(c5ncnc(N)c53)CCC4)cc2)cc1N(C)C`, for which the results for the IC50 in test [1] and in test [2] were 10 to 200 nM and more than 200 nM, respectively.
For `Nc1ncnc2c3c(n(-c4ccc(NC(=O)Cc5ccc(C(F)(F)F)nn5)cc4)c12)CCC3` the same measures were 10 to 200 nM and more than 200 nM.
Turning to `COc1ccc(NC(=O)Cc2ccc(-n3c4c(c5ncnc(N)c53)CCC4)cc2)cc1F`, the IC50 in test [1] was less than 10 nM; in test [2], more than 200 nM.
`Nc1ncnc2c3c(n(-c4ccc(CC(=O)N5CCOc6ccccc65)cc4)c12)CCC3`: the 50% inhibitory concentration (IC50) in test [1] is less than 10 nM; in test [2] it was more than 200 nM.
Consider `Nc1ncnc2c3c(n(-c4ccc(CC(=O)Nc5ccc(OC(F)(F)F)cc5)cc4)c12)CCC3`, for which the concentration for half-maximal inhibition (IC50) was 10 to 200 nM in test [1] and more than 200 nM in test [2].
For `Nc1ncnc2c3c(n(-c4ccc(CC(=O)Nc5ccc(C(F)(F)F)c(Cl)c5)cc4)c12)CCC3` the same measures were less than 10 nM and more than 200 nM.
Take `COc1cc(-n2c3c(c4ncnc(N)c42)CCC3)ccc1NC(=O)Cc1ccc(OC(F)(F)F)cc1`: the half-inhibitory concentration (IC50) is less than 10 nM in test [1] and more than 200 nM in test [2].
For `COc1ccc(NC(=O)Cc2ccc(-n3c4c(c5ncnc(N)c53)COC4)cc2)cc1C(F)(F)F` the same measures were less than 10 nM and 10 to 200 nM.
As to `Nc1ncnc2c3c(n(-c4ccc(CC(=O)Nc5ccc(C(F)(F)F)cn5)cc4)c12)CCC3`, the figures for the IC50 in test [1] and in test [2] were 10 to 200 nM and more than 200 nM, respectively.
The corresponding values for `Nc1ncnc2c3c(n(-c4ccc(CC(=O)Nc5nc(C(F)(F)F)co5)cc4)c12)CCC3` are 10 to 200 nM and more than 200 nM.
For `Nc1ncnc2c3c(n(-c4ccc(CC(=O)Nc5cc(C(F)(F)F)ccc5F)cc4)c12)CCC3` the same measures were less than 10 nM and 10 to 200 nM.
For `Nc1ncnc2c3c(n(-c4ccc(CC(=O)Nc5ccc(C(F)(F)F)cn5)cc4)c12)COC3` the same measures were 10 to 200 nM and more than 200 nM.
Consider `COc1cc(CC(=O)Nc2ccc(-n3c4c(c5ncnc(N)c53)COC4)cc2)ccc1C`, for which the results for the half-inhibitory concentration (IC50) in test [1] and in test [2] were 10 to 200 nM and more than 200 nM, respectively.
Consider `Nc1ncnc2c3c(n(-c4ccc(NC(=O)Cc5ccc6c(c5)CCC6)cc4)c12)CCC3`, for which the half-maximal inhibitory concentration (IC50) is less than 10 nM in test [1] and more than 200 nM in test [2].
With `COc1cc(-n2c3c(c4ncnc(N)c42)CCC3)ccc1NC(=O)Cc1ccc(OC)c(C(F)(F)F)c1`, the IC50 in test [1] was 10 to 200 nM; in test [2], more than 200 nM.
For `COc1ccc(NC(=O)Cc2ccc(-n3c4c(c5ncnc(N)c53)CCC4)cc2OC)cc1F` the same measures were less than 10 nM and more than 200 nM.
The corresponding values for `Nc1ncnc2c3c(n(-c4ccc(NC(=O)CCc5c[nH]c6ccccc56)cc4)c12)CCC3` are more than 200 nM and more than 200 nM.
The corresponding values for `Cn1ccc2cc(NC(=O)Cc3ccc(-n4c5c(c6ncnc(N)c64)CCC5)cc3)ccc21` are less than 10 nM and more than 200 nM.
`Cc1ccc(F)c(NC(=O)Cc2ccc(-n3c4c(c5ncnc(N)c53)CCC4)cc2)c1`: the 50% inhibitory concentration (IC50) in test [1] is less than 10 nM; in test [2] it was 10 to 200 nM.
Turning to `COc1cc(-n2c3c(c4ncnc(N)c42)CCC3)ccc1CC(=O)Nc1ccc(OC(F)(F)F)cc1`, the figures for the IC50 in test [1] and in test [2] were less than 10 nM and more than 200 nM, respectively.
The corresponding values for `Nc1ncnc2c3c(n(-c4ccc(CC(=O)NC5CCOCC5)cc4)c12)CCC3` are more than 200 nM and more than 200 nM.
In the case of `COc1cc(-n2c3c(c4ncnc(N)c42)CCC3)ccc1CC(=O)Nc1ccc(Cl)c(C(F)(F)F)c1`, the half-maximal inhibitory concentration (IC50) in test [1] was less than 10 nM; in test [2] it was more than 200 nM.
For `COc1cc(-n2c3c(c4ncnc(N)c42)CCC3)ccc1CC(=O)Nc1ccc(OC)c(C(F)(F)F)c1` the same measures were less than 10 nM and more than 200 nM.
In the case of `Nc1ncnc2c3c(n(-c4ccc(CC(=O)Nc5ccnc(C(F)(F)F)c5)cc4)c12)CCC3`, the IC50 in test [1] and in test [2] was 10 to 200 nM in each case.
Regarding `COc1ccc(CC(=O)Nc2ccc(-n3c4c(c5ncnc(N)c53)COC4)cc2)cc1C`, the IC50 is less than 10 nM in test [1] and more than 200 nM in test [2].
Turning to `COc1ccc(NC(=O)Cc2ccc(-n3c4c(c5ncnc(N)c53)CCC4)cc2)cc1C(F)(F)F`, the half-inhibitory concentration (IC50) in test [1] was less than 10 nM; in test [2], 10 to 200 nM.
With `COc1cc(-n2c3c(c4ncnc(N)c42)CCC3)ccc1CC(=O)Nc1cc(C(F)(F)F)ccc1F`, the figures for the IC50 in test [1] and in test [2] were less than 10 nM and more than 200 nM, respectively.
With `Nc1ncnc2c3c(n(-c4ccc(CC(=O)Nc5ccc(OC(F)(F)F)cc5)cc4)c12)COC3`, the figures for the concentration for half-maximal inhibition (IC50) in test [1] and in test [2] were 10 to 200 nM and more than 200 nM, respectively.

In general, IC50 refers to the midpoint of a concentration-inhibition curve.
